# Measurements from patent US12077495B2 (priority 2018, dated 2024).
# Columns and labels:
# [1] = test system: photothrombotic focal ischemia in C57BL/6J mice; experiment: Photothrombotic model, behavioural assessment (grid-walking and cylinder tasks); type: in vivo; conditions: for cylinder task, improvement vs saline / grid-walking task, reduction of asymmetry: 7 days after ischemia
# Protocol: (§1) All procedures were performed in accordance with the guidelines on the care and use of laboratory animals set out by the University of Otago, Animal Research Committee and the Guide for Care and Use of Laboratory Animals (NIH Publication No. 85-23, 1996). All in vivo studies were approved by the University of Otago Animal Ethics Committee and are reported according to the ARRIVE (Animal Research: Reporting In Vivo Experiments) guidelines. The photochemical cortical lesion model resembles situations of acute brain injury related clinically to stroke and traumatic brain injury (TBI). Focal ischemia was induced by photothrombosis in male C57BL/6J mice (8-10 weeks) weighing ˜23-30 g as previously described (Clarkson et al., 2010). Under anesthesia with isoflurane (2% to 2.5% in O2) mice were placed in a stereotactic apparatus, the skull exposed through a midline incision, cleared of connective tissue and dried. A cold light source (KL1500 LCD, Zeiss, Auckland, New Zealand) attached to a 40× objective providing a 2-mm diameter illumination was positioned 1.5 mm lateral from bregma. Then, 0.2 ml of Rose Bengal (Sigma-Aldrich, Auckland, New Zealand; 10 mg/ml in normal saline) was administered i.p. After 5 min, the brain was illuminated through the exposed intact skull for 15 min, while keeping body temperature at 37.0±0.3° C. degrees using a heating pad (Harvard apparatus, Holliston, MA, USA). The skin was glued and animals left in a cage placed on a heating pad during the wake-up phase. Mice were housed under a 12-hr light/dark cycle with ad libitum access to food and water. Further, the mice were monitored and weighed on a daily basis.
# (§2) For in vivo studies, all compounds were dissolved in a mixture of sterile saline and H2O to obtain isotonicity (0.9%) and administered as 10 mg/ml and 10 μl of solution per gram mouse body weight. The injection of compound (i.p.) was performed 30 min, 3, 6 or 12 hrs after induction of the photothrombotic stroke. The vehicle groups received a corresponding volume of saline (0.9%) at the same time points (30 min, 3, 6 or 12 hrs).
# Forelimb motor performance was determined using the cylinder and grid-walking tasks as previously described (Clarkson et al., 2010). All animals were tested both in a pre- and post-testing session, 1 week before and 3 days or 7 days after the ischemic insult, respectively. Observers who scored the behaviour were blinded to the treatment groups.
# [2] = test system: photothrombotic focal ischemia in C57BL/6J mice; experiment: Photothrombotic mouse model of focal ischemia, infarct volume; type: in vivo; conditions: for infarct volume: saline 9.38
# Protocol: as §1, §2
# For quantification of the infarcted area, animals were perfused with saline and then with 4% paraformaldehyde (PFA) and the brain dissected out and submerged in 4% PFA for post-fixing overnight. Then the brains were moved to 30% sucrose solution and kept at 4° C. until processing. Brains were cut in 30 μm sections, free-floating in anti-freeze media. Sections were mounted, stained for cresyl violet and the infarct volumes determined by measuring every 6th section through the entire infarct as described in Lie et al (2017). All analyses were performed by an observer blinded to the treatment groups. Brains from the pMCAO studies were flash-frozen in CO2 (gas) and processed into six parallel series of sections (30 μm). Separate series were collected on glass slides and used for infarct size analysis or in Eppendorf tubes and used for qPCR. The glass slides were stored at −80° C. until further processing, and then Cresyl-Violet stained and quantified as described for the photothrombotic photochemical method.
# CAMK2A = target: T1, CAMK2A (Rattus norvegicus, UniProt P11275); experiment: biochemical; type: binding; conditions: whole cell lysates of CAMK2A-transfected HEK293T cells
# T1 construct: host or cells: HEK293T
# Protocol: Cells were transfected with rat CAMK2A (Origene construct RR201121) or rat CAMK2B (Origene construct RR200520) using PolyFect (Qiagen, West Sussex, UK) according to the manufacturer's protocol. Whole cell homogenates were prepared 48 hr post-transfection by washing the cells with ice-cold 1×PBS and harvesting by scraping. Cells were collected and centrifuged for 10 min at 1000×g. Cell pellets were resuspended in ice-cold 1×PBS and homogenized using 2×1 mm zirkonium beads in a bullet blender for 20 s at max speed (NextAdvance, NY, USA). Homogenates were cleared by centrifugation (10 min, 4° C., 14.000×g). Protein concentration was determined using the Bradford protein assay. 150-200 μg protein was incubated with 5 nM ^3H-A and test compound in 1 ml total volume for 1 hr at 0-4° C. […] Proteins were then precipitated by addition of ice-cold acetone (4× of the assay volume), vortexing and incubation at −20° C. for 1 hr. Proteins were filtrated rapidly through GF/C unifilters (Whatman) and washed. The dried filters were added scintillation liquid and radioactivity measured on a Tricarb 2100 Scintillation counter (Packard).
# A) Principle of photoaffinity labelling workflow. […] After introduction of biotin through a Staudinger-Bertozzi ligation to EZ-Link™ Phosphine-PEG3-Biotin (ThermoFisher Scientific), the biotin-labelled proteins were affinity-purified and subjected to LC-MS/MS analysis. […] C)^3H-A binding to cortical membranes from CAMK2A and CAMK2B knock-out mouse brains.
# Human/rat CAMK2A expressed in HEK cells was assayed in an in-house established ^3H-A filtration binding assay performed on whole cell lysates of CAMK2A-transfected HEK293T cells.
# [3] = 175 mg/kg 30 min after ischemia, day 3
# [4] = 175 mg/kg i.p. 30 min after stroke, day 3
# T1 sequence (P11275 whole entry): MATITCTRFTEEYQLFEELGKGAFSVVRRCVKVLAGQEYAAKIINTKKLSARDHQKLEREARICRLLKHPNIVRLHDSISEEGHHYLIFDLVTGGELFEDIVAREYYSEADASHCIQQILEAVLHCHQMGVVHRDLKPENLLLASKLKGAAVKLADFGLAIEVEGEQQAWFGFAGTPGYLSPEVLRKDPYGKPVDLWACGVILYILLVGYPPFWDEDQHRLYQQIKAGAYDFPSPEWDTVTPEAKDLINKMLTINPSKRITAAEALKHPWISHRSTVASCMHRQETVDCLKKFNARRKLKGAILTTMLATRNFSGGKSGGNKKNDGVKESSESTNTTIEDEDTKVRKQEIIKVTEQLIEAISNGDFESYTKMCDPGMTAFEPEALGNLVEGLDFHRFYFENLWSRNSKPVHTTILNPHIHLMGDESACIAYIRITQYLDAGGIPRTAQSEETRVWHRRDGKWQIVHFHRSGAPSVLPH
smiles,measurement,setting,value
"O=C(O)C1=CC(O)CC1 (centres unmarked) [Compound A, 3-hydroxycyclopent-1-enecarboxylic acid]","cylinder task, reduction of asymmetry","[1]; 17.5 mg/kg 30 min after ischemia, day 3",40%
same,"grid-walking task, reduction vs saline","[1]; 17.5 mg/kg 30 min after ischemia, day 3, non-significant",10%
same,"cylinder task, reduction of asymmetry",[1]; [3],42%
same,"grid-walking task, improvement vs saline",[1]; [3],26%
same,"cylinder task, improvement vs saline",[1]; 175 mg/kg 3 hr after ischemia,16%
same,"grid-walking task, reduction of asymmetry",[1]; 175 mg/kg 3 hr after ischemia,31%
same,"cylinder task, improvement vs saline",[1]; 175 mg/kg 6 hr after ischemia,20%
same,"grid-walking task, reduction of asymmetry",[1]; 175 mg/kg 6 hr after ischemia,22%
same,"cylinder task, improvement vs saline",[1]; 175 mg/kg 12 hr after ischemia,non-significant
same,"grid-walking task, reduction of asymmetry",[1]; 175 mg/kg 12 hr after ischemia,21%
same,infarct volume,"[2]; 17.5 mg/kg i.p. 30 min after stroke, day 3, not significant",8.95 mm^3
same,decrease of infarct size vs saline,[2]; 90 mg/kg 3 hrs after stroke,51%
same,infarct size,"[2]; 90 mg/kg 3 hrs after stroke, saline 5.55",2.68 mm^3
same,decrease of infarct size vs saline,"[2]; 175 mg/kg i.p. 3, 6 or 12 hrs after stroke",33-43%
same,reduction of infarct volume vs saline,[2]; [4],30%
same,infarct volume,[2]; [4],6.56 mm^3
same,infarct size,"[2]; 175 mg/kg i.p. 3 hrs after stroke, saline 5.51",3.12 mm^3
same,infarct size,"[2]; 175 mg/kg i.p. 6 hrs after stroke, saline 5.51",3.68 mm^3
same,infarct size,"[2]; 175 mg/kg i.p. 12 hrs after stroke, saline 5.51",3.58 mm^3
same,Ki,CAMK2A,1950 nM
